Data published in article PMC9101087, “A Sensitive LC-MS/MS Method for the Simultaneous Determination of Two Thia-Analogous Indirubin N-Glycosides and Indirubin-3′-Monoxime in Plasma and Cell Culture Medium” (Molecules, 2022).
Each block holds one compound with its values, some of them ahead of it.

Columns and labels:
[1] = Storage stability in human plasma, LC-MS/MS after plasma precipitation; format: in vitro ADME; settings: for Stability 4 °C / Stability AS (autosampler) / Stability −20 °C / Stability BT (benchtop): 24 h; for Stability FT (freeze-thaw): freeze-thaw cycles; for Stability BT (benchtop): room temperature
Protocol: (§1) To assess stability, low and high concentrations of all analytes were subjected to different storage conditions. […] For determination of long-term stability, samples were stored in either plasma or DMEM at –80 °C for 90 and 91 days, respectively. To measure short-term stability, samples were stored at room temperature, in an autosampler, at 4 °C, and at –20 °C for 24 h. In addition, freeze-thaw cycles were performed according to FDA guidance for the standard solutions. For comparison, at least three freshly prepared samples were prepared for each concentration level. With the exception of autosampler stability, the internal standard was always added to all samples before sample processing was started.
After mixing the 1.5 µM internal standard and the plasma sample, protein precipitation was commenced. Next, 190 µL of acetonitrile and 50 µL of 0.5 M sulfuric acid buffer were added. The tubes were then shaken at 1400 rpm for 5 min followed by centrifugation at 14,000 rpm for 5 min. Subsequently, 195 µL of the supernatant was transferred to an LC tube and analyzed.
(§2) To assess stability, low and high concentrations of all analytes were exposed to different storage conditions. To determine long-term stability, samples were stored in either plasma or DMEM at −80 °C for 90 and 91 days, respectively. To determine short-term stability, samples were stored for 24 h on the bench at room temperature, in the autosampler, at 4 °C, and at −20 °C. In addition, freeze-thaw cycles were performed for the standard solutions according to FDA guidance. At least three freshly prepared samples per concentration level were prepared for comparison. With the exception of the stability test in the autosampler, the internal standard was always added to all samples before sample processing was started. However, to avoid concentration fluctuations due to possible degradation of the analytes, stock solutions were prepared twice a week and stored at −20 °C. Each storage condition was examined in the dark. For all conditions studied, n = 3–6 replicates were prepared.

[2] = Storage stability in human plasma, LC-MS/MS after plasma extraction; format: in vitro ADME; settings: for Stability 4 °C / Stability AS (autosampler) / Stability −20 °C / Stability BT (benchtop): 24 h; for Stability FT (freeze-thaw): freeze-thaw cycles; for Stability −80 °C 90 d: long-term freezing; for Stability BT (benchtop): room temperature
Protocol: as §1
(§3) Liquid-liquid extraction was performed identically for plasma and DMEM samples. After addition of the 1.0 µM internal standard, 50 µL of 0.8 M alkaline carbonate buffer was added. The extraction was performed once with 890 µL ethyl acetate. Tubes were then shaken for 10 min at 1400 rpm using a Thermomixer 5436 (Eppendorf AG, Hamburg, Germany) followed by centrifugation for 5 min at 14,000 rpm using a Centrifuge 5415 C (Eppendorf AG, Hamburg, Germany). Subsequently, 850 µL of the supernatant was transferred to a new tube and evaporated to dryness for 35 min at 35 °C (8 min heating time) using a SpeedVac SPD130DLX (Thermo Fisher Scientific, Asheville, NC, USA). Reconstitution was performed with 200 µL of a acetonitrile/water/H2SO4 [3/0.5/0.5] mixture, shaken at 1400 rpm for 5 min, and centrifuged again at 14,000 rpm for 5 min. Finally, 155 µL of the sample was transferred to an LC vial and analyzed.
as §2

[3] = Storage stability in DMEM, LC-MS/MS after DMEM extraction; format: physicochemical; settings: for Stability 4 °C / Stability AS (autosampler) / Stability −20 °C / Stability BT (benchtop): 24 h; for Stability FT (freeze-thaw): freeze-thaw cycles; for Stability −80 °C 91 d: long-term freezing; for Stability BT (benchtop): room temperature
Protocol: as §1
Regarding the medium, validation procedures were performed with high-glucose DMEM supplemented with 100 U/mL penicillin and 100 μg/mL streptomycin, but not with FBS. With the exception of selectivity, where both media (GlutaMAX™-I or UltraGlutamine^TM I supplement) were tested, only Gibco™ DMEM with GlutaMAX™-I was used for all other analytical procedures.
as §3, §2

[4] = Storage stability in human plasma, LC-MS/MS after plasma precipitation; format: in vitro ADME; settings: long-term freezing
A375 (melanoma) = assay: WST-1 cell viability assay, 48-h incubation; format: cell-based, human; settings: A375, WST-1, 48 h
Protocol: (§4) To test the biological activity of the thia-analogous indirubin N-glycosides that are the focus of the present work, the effects of KD87 and KD85 and their non-glycosylated parent compound KD88 on the viability of various tumor cell lines were initially investigated. The corresponding analyses were performed using the cell lines A375 (melanoma), A431 (skin squamous cell carcinoma), A549 (non-small cell lung carcinoma), U251MG (glioblastoma), and U138MG (glioblastoma).
(§5) Figure 2 Effect of increasing concentrations of KD87 (A), KD85 (B), and KD88 (C) on viability of various cancer cells. A375 (melanoma; black columns), A431 (skin squamous cell carcinoma; dark grey columns), A549 (non-small cell lung carcinoma; grey columns), U251MG (glioblastoma; light grey columns), or U138MG (glioblastoma; white columns) were incubated for 48 h with the appropriate compounds or vehicle followed by determination of cell viability by WST-1 assay. Percent control represents comparison with vehicle-treated cells (100%) in the absence of test substance. Values are mean ± standard error of the mean (SEM) of n = 15 in all panels, except n = 14 for A375 and A431 cells in panel B and n = 14–15 for A375 cells in panel C, from four (A375, A431) or five (A549, U251MG, U138MG) independent experiments. * p ≤ 0.05, ** p ≤ 0.01, *** p ≤ 0.001, **** p ≤ 0.0001 vs. vehicle control; one-way ANOVA with Dunnett’s post hoc test.
(§6) The human melanoma cell line A375 (#300110; RRID:CVCL_0132) as well as the human skin epidermoid carcinoma cell line A431 (#300112; RRID:CVCL_0037) were purchased from CLS Cell Lines Service GmbH (Eppelheim, Germany). The human glioblastoma cell line U251MG (#09063001; RRID:CVCL_0021) was from Sigma-Aldrich Corporation. The human glioblastoma cell line U138MG (#ACC 291; RRID: CVCL_0020) and the human lung carcinoma cell line A549 (#ACC 107, RRID:CVCL_0023) were purchased from DSMZ (Deutsche Sammlung von Mikroorganismen und Zellkulturen GmbH, Braunschweig, Germany).
(§7) Cells were cultured in high-glucose DMEM (with GlutaMAX™-I: A375, A431; with UltraGlutamine^TM I: A549, U251MG, U138MG) supplemented with 10% heat-inactivated FBS, 100 U/mL penicillin, and 100 μg/mL streptomycin and grown in a humidified incubator at 37 °C and 5% CO2. For viability analyses, cells were seeded in 96-well plates at a density of 5000 cells per well in DMEM containing 10% heat-inactivated FBS and cultured for 24 h. All cell experiments with the specific substances were performed in serum-free DMEM supplemented with 100 U/mL penicillin and 100 μg/mL streptomycin, applied after washing the cells with DPBS. The test substances were dissolved in DMSO. The final concentration of DMSO in the incubation media of test substance- and vehicle-treated cells was 1% (v/v).
(§8) After completion of the 48-h incubation, WST-1 reagent (Sigma, Taufkirchen, Germany) was added to the cells to achieve a final dilution of 1:10, and the cells were incubated for an additional 20 min before absorbance was measured at 450 nm, reference wavelength […], using a microplate reader.

[5] = test system: A431 (skin squamous cell carcinoma); assay: WST-1 cell viability assay, 48-h incubation; format: cell-based, human; settings: A431, WST-1, 48 h
Protocol: as §4, §5, §6, §7, §8

[6] = test system: A549 (non-small cell lung carcinoma); assay: WST-1 cell viability assay, 48-h incubation; format: cell-based, human; settings: A549, WST-1, 48 h
Protocol: as §4, §5, §6, §7, §8

U138MG (glioblastoma) = assay: WST-1 cell viability assay, 48-h incubation; format: cell-based, human; settings: WST-1, 48 h
Protocol: as §4, §5, §6, §7, §8

U251MG (glioblastoma) = assay: WST-1 cell viability assay, 48-h incubation; format: cell-based, human; settings: WST-1, 48 h
Protocol: as §4, §5, §6, §7, §8

A549 lung cancer cells = settings: sulforhodamine B assay, incubation 24 h longer than the 48-h assay; cited from earlier work
[7] = test system: human fibrosarcoma cell line HT1080; settings: sulforhodamine B assay, incubation 24 h longer than the 48-h assay; cited from earlier work
[8] = test system: human gastric (SNU-638) cancer cells; settings: sulforhodamine B assay, incubation 24 h longer than the 48-h assay; cited from earlier work
[9] = test system: human colon (Col2) cancer cells; settings: sulforhodamine B assay, incubation 24 h longer than the 48-h assay; cited from earlier work
[10] = test system: human breast cancer cells (MCF-7); settings: sulforhodamine B assay, incubation 24 h longer than the 48-h assay; cited from earlier work
leukemia cells (HL60) = settings: sulforhodamine B assay, incubation 24 h longer than the 48-h assay; cited from earlier work

- Stability 4 °C ([1]; 2.0 nM): 89.7 ± 1.5%
- Stability AS (autosampler) ([1]; 2.0 nM): 124.3 ± 9.5%
- Stability −20 °C ([1]; 2.0 nM): 95.2 ± 3.7%
- Stability FT (freeze-thaw) ([1]; 2.0 nM): 104.1 ± 5.5%
- Stability BT (benchtop) ([1]; 2.0 nM): 100.1 ± 9.0%
- Stability 4 °C ([1]; 167 nM): 91.5 ± 3.3%
- Stability AS (autosampler) ([1]; 167 nM): 112.0 ± 6.8%
- Stability −20 °C ([1]; 167 nM): 93.7 ± 7.7%
- Stability FT (freeze-thaw) ([1]; 167 nM): 99.7 ± 7.4%
- Stability BT (benchtop) ([1]; 167 nM): 98.6 ± 4.3%
- Stability 4 °C ([2]; 3.0 nM): 95.9 ± 8.7%
- Stability AS (autosampler) ([2]; 3.0 nM): 68.0 ± 1.5%
- Stability −20 °C ([2]; 3.0 nM): 93.8 ± 1.9%
- Stability FT (freeze-thaw) ([2]; 3.0 nM): 94.9 ± 4.0%
- Stability −80 °C 90 d ([2]; 3.0 nM): 96.2 ± 7.2%
- Stability BT (benchtop) ([2]; 3.0 nM): 102.2 ± 1.8%
- Stability 4 °C ([2]; 250 nM): 94.6 ± 2.2%
- Stability AS (autosampler) ([2]; 250 nM): 58.5 ± 1.3%
- Stability −20 °C ([2]; 250 nM): 96.5 ± 1.6%
- Stability FT (freeze-thaw) ([2]; 250 nM): 99.7 ± 1.6%
- Stability −80 °C 90 d ([2]; 250 nM): 100.6 ± 3.0%
- Stability BT (benchtop) ([2]; 250 nM): 96.3 ± 7.3%
- Stability 4 °C ([3]; 3.0 nM): 113.8 ± 6.6%
- Stability AS (autosampler) ([3]; 3.0 nM): 65.0 ± 1.3%
- Stability −20 °C ([3]; 3.0 nM): 92.0 ± 1.1%
- Stability FT (freeze-thaw) ([3]; 3.0 nM): 100.0 ± 5.7%
- Stability −80 °C 91 d ([3]; 3.0 nM): 90.6 ± 4.5%
- Stability BT (benchtop) ([3]; 3.0 nM): 66.8 ± 2.7%
- Stability 4 °C ([3]; 40 nM): 100.4 ± 1.3%
- Stability AS (autosampler) ([3]; 40 nM): 63.6 ± 0.3%
- Stability −20 °C ([3]; 40 nM): 93.1 ± 2.5%
- Stability FT (freeze-thaw) ([3]; 40 nM): 99.5 ± 3.2%
- Stability −80 °C 91 d ([3]; 40 nM): 99.0 ± 2.7%
- Stability BT (benchtop) ([3]; 40 nM): 59.4 ± 2.4%
- Stability −80 °C 91 d ([4]; 2.0 nM): 101.0 ± 9.0%
- Stability −80 °C 91 d ([4]; 167 nM): 103.0 ± 3.6%
Compound: O=C1Nc2ccccc2/C1=C1/Nc2ccccc2/C1=N\O [I3M, indirubin-3′-monoxime]

Compound: O=C1Nc2ccccc2/C1=C1/Sc2ccccc2C1=O [KD88, 3-[3′-oxo-benzo[b]thiophene-2′-(Z)-ylidene]-oxindole]
- cytotoxic potential (in words) (A375 (melanoma)): no cytotoxic potential
- cytotoxic potential (in words) [5]: no cytotoxic potential
- cytotoxic potential (in words) [6]: no cytotoxic potential
- cytotoxic potential (in words) (U138MG (glioblastoma)): no cytotoxic potential
- cytotoxic potential (in words) (U251MG (glioblastoma)): no cytotoxic potential

Compound: O=C1Nc2ccccc2/C1=C1/Nc2ccccc2C1=O [indirubin]
- IC50 (A549 lung cancer cells): 31 µM
- IC50 [7]: 42 µM
- IC50 [8]: > 100 µM
- IC50 [9]: > 100 µM
- IC50 [10]: > 100 µM
- IC50 (leukemia cells (HL60)): > 100 µM
